Measurements from patent US7977434B2, “Polymeric hydrophobic aminonitrile quats used for bleach activation” (BASF Aktiengesellschaft, priority 2005, dated 2011).

Legend:
Details in all cases: 25° C., 1% bleach activator, 15% by weight sodium percarbonate in color laundry detergent, 30 min wash
[1] = Launderometer test, removal of olive oil stain dyed with Sudan red 7 B
Experimental: (§1) Standard test in a launderometer with 5% activator addition at 25° C. and 50° C. of tea-, red wine-, grass- and curry-stained fabric. In addition, the removal of triolein and olive oil stains from cotton fabric is investigated. To this end, triolein and olive oil are dyed with 0.1% Sudan red 7 B (=Solvent Red 19). This dye is dissolved and homogenized beforehand with gentle warming. The preparation is effected by adding dropwise with a pipette, in the course of which the test fabric is stretched. 0.1 g of the solution is added dropwise and spreads on the fabric overnight. All test specimens are determined twice.
(§2) To this end, 15% by weight of bleach (sodium percarbonate) and 1.2 and 5% by weight of the appropriate activator are mixed into a commercial color laundry detergent which is homogenized in dry form.
(§3) The bleaching experiments in the launderometer are evaluated by reflectance measurement and calculation of the bleaching action on the bleachable stains used (tea, red wine, grass, curry, triolein and olive oil). The standard deviation of the reflectance R is <1%.
(§4) Mixing of stock hardness 1 (Ca^+++Mg^++) and stock hardness 2 (NaHCO3), both 0.8 mol/l in each case. Hard water is tested before use. The water hardness is determined by using Titriplex solution. • Stock hardness 1 94.09 g of calcium chloride 2H2O and 32.53 g of magnesium chloride. […]

[2] = Launderometer bleaching test, red wine stain
Experimental: as §1, §2
The bleaching experiments in the launderometer are evaluated by reflectance measurement and calculation of the bleaching action on the bleachable stains used (tea, red wine, grass, curry, triolein and olive oil). The standard deviation of the reflectance R is <1%. […]
Mixing of stock hardness 1 (Ca^+++Mg^++) and stock hardness 2 (NaHCO3), both 0.8 mol/l in each case. […] The water hardness is determined by using Titriplex solution. • Stock hardness 1 94.09 g of calcium chloride 2H2O and 32.53 g of magnesium chloride. […]

[3] = Launderometer bleaching test, tea stain
Experimental: as §1, with “Standard test in a launderometer with 5% activator addition at 25° C. and 50° C. of tea-, red wine-, grass- and curry-stained fabric.” left out
(§5) The bleaching experiments in the launderometer are evaluated by reflectance measurement and calculation of the bleaching action on the bleachable stains used (tea, red wine, grass, curry, triolein and olive oil).
(§6) Commercially unavailable stains such as tea, chlorophyll were premeasured individually.
as §4

[4] = Launderometer test, removal of triolein stain dyed with Sudan red 7 B
Experimental: as §1, §2, §3, §4

[5] = Launderometer bleaching test, curry stain
Experimental: as §1, §2, §3, §4

[6] = Launderometer bleaching test, grass stain
Experimental: as §1, with “Standard test in a launderometer with 5% activator addition at 25° C. and 50° C. of tea-, red wine-, grass- and curry-stained fabric.” left out
as §5, §6, §4

Row | SMILES | reflectance, Olive oil [1] | reflectance, Red wine [2] | reflectance, Tea [3] | reflectance, Triolein [4] | reflectance, Curry [5] | reflectance, Grass [6]
1 | C[N+]1(CC#N)CCOCC1.O=S(=O)([O-])O [BMG, methylmorpholinioacetonitrile hydrogensulfate] | 39.9% | 61.8% | 48.5% | 42.2% | 69.2% | 40.1%
2 | CC(=O)N(CCN(C(C)=O)C(C)=O)C(C)=O [TAED, tetraacetylethylenediamine] | 40.0% | 58.4% | 34.5% | 42.6% | 65.1% | 39.2%
